Experimental data as given in PMC8196580, “Identification of Kaurane-Type Diterpenes as Inhibitors of Leishmania Pteridine Reductase I” (Molecules, 2021).
Like-named read-outs stand apart in the source and are kept apart here.

Key:
[1] = system: L. major; design: method as in ChEMBL; details: ref ChEMBL, cited from earlier work
[2] = system: L. major; test: ChEMBL dataset of pIC50 values against L. major used for the RF model (Table S1); assay type: cell-based, Leishmania major; note: call rule not given here
[3] = ChemBL structures with pIC50 values used for Random forest model construction (Table S1)
[4] = Active/Inactive class assigned to ChemBL structures for Random forest model construction (Table S1)
[5] = ChemBL structures with pIC50 values used for Random forest model construction, L. major
[6] = Active/Inactive class assigned to the ChEMBL pIC50 value for Random forest model construction, ref ChEMBL

Row | Compound | pIC50 Value [1, 3] | Outcome [2, 4] | pIC50 Value [1, 5] | Outcome [2, 6]
1 | CC(=O)C1=C(C)NC(=O)NC1c1cccc([N+](=O)[O-])c1 (stereo not drawn) [CHEMBL3785264] | 5.61 | Active | – | –
2 | CC1=C(C(=O)/C=C/c2ccc(Cl)cc2)C(c2ccccc2)NC(=O)N1C (stereo not drawn) [CHEMBL3785670] | 5.77 | Active | – | –
3 | CC(=O)C1=C(CNc2ccc(C(=O)/C=C/c3ccc(Cl)cc3)cc2)N(C)C(=O)NC1c1ccccc1 (stereo not drawn) [CHEMBL3785674] | 5.97 | Active | – | –
4 | CC1=C(C(=O)Nc2ccc(C(=O)/C=C/c3ccc(O)cc3)cc2)C(c2cccc(O)c2)NC(=S)N1 (stereo not drawn) [CHEMBL3785704] | 5.98 | Active | – | –
5 | CC(=O)C1=C(C)N(C)C(=O)NC1c1ccccc1 (stereo not drawn) [CHEMBL3785882] | 5.59 | Active | – | –
6 | CC1=C(C(=O)Nc2ccc(C(=O)/C=C/c3cccc([N+](=O)[O-])c3)cc2)C(c2ccc(C)cc2)NC(=S)N1 (stereo not drawn) [CHEMBL3786068] | 5.90 | Active | – | –
7 | COCC1=C(C(=O)OC)C(c2cccc([N+](=O)[O-])c2)NC(=O)N1 (stereo not drawn) [CHEMBL3786102] | 5.53 | Active | – | –
8 | CC(=O)C1=C(CNc2ccc(C(=O)/C=C/c3ccc(O)cc3)cc2)N(C)C(=O)NC1c1ccccc1 (stereo not drawn) [CHEMBL3786140] | 5.98 | Active | – | –
9 | CC(=O)C1=C(C)NC(=O)NC1c1cccc(C)c1 (stereo not drawn) [CHEMBL3786214] | 5.44 | Active | – | –
10 | CC(=O)C1=C(CNc2ccc(C(=O)/C=C/c3ccccc3)cc2)N(C)C(=O)NC1c1ccccc1 (stereo not drawn) [CHEMBL3786339] | 5.94 | Active | – | –
11 | CC(=O)C1=C(CNc2ccc(C(=O)/C=C/c3cccc([N+](=O)[O-])c3)cc2)N(C)C(=O)NC1c1ccccc1 (stereo not drawn) [CHEMBL3786374] | 5.88 | Active | – | –
12 | CC(=O)C1=C(CNc2ccc(C3=NNC(c4ccc(O)cc4)C3)cc2)N(C)C(=O)NC1c1ccccc1 (stereo not drawn) [CHEMBL3786468] | 6.02 | Active | – | –
13 | CC1=C(C(=O)Nc2ccc(C(=O)/C=C/c3ccc(O)cc3)cc2)C(c2ccc(C)cc2)NC(=S)N1 (stereo not drawn) [CHEMBL3786661] | 5.96 | Active | – | –
14 | CCOC(=O)C1=C(C)NC(=S)NC1c1ccc(C)cc1 (stereo not drawn) [CHEMBL3786732] | 5.66 | Active | – | –
15 | CC1=C(C(=O)Nc2ccc(C(=O)/C=C/c3cccc([N+](=O)[O-])c3)cc2)C(c2cccc(O)c2)NC(=S)N1 (stereo not drawn) [CHEMBL3786907] | 5.95 | Active | – | –
16 | CC(=O)C1=C(CNc2ccc(C(=O)/C=C/c3ccc(N(C)C)cc3)cc2)N(C)C(=O)NC1c1ccccc1 (stereo not drawn) [CHEMBL3787141] | 5.86 | Active | – | –
17 | CC1=C(C(=O)/C=C/c2ccc(O)cc2)C(c2ccccc2)NC(=O)N1C (stereo not drawn) [CHEMBL3787563] | 5.77 | Active | – | –
18 | CCCCCCCCCC(=O)OCCc1ccc(O)cc1 [CHEMBL3960630] | – | – | 4.19 | Inactive
19 | COc1ccccc1-c1nnc(-c2ccc(C(=O)N/N=C/c3cc(O)ccc3O)cc2)o1 [CHEMBL4059674] | 5.35 | Active | – | –
20 | COc1ccccc1-c1nnc(-c2ccc(C(=O)N/N=C/c3ccc(Cl)cc3)cc2)o1 [CHEMBL4060153] | – | – | 4.47 | Inactive
21 | COc1ccccc1-c1nnc(-c2ccc(C(=O)N/N=C/c3ccccc3F)cc2)o1 [CHEMBL4060698] | – | – | 5.29 | Active
22 | COc1ccccc1-c1nnc(-c2ccc(C(=O)N/N=C/c3cccc(O)c3O)cc2)o1 [CHEMBL4065149] | 5.85 | Active | – | –
23 | COc1ccccc1-c1nnc(-c2ccc(C(=O)N/N=C/c3ccc([N+](=O)[O-])cc3)cc2)o1 [CHEMBL4067171] | – | – | 4.25 | Inactive
24 | COc1ccccc1-c1nnc(-c2ccc(C(=O)N/N=C/c3ccc(Cl)cc3Cl)cc2)o1 [CHEMBL4068809] | – | – | 5.29 | Active
25 | COc1ccc(/C=N/NC(=O)c2ccc(-c3nnc(-c4ccccc4OC)o3)cc2)cc1O [CHEMBL4069376] | – | – | 5.19 | Active
26 | COc1ccccc1-c1nnc(-c2ccc(C(=O)N/N=C/c3ccccn3)cc2)o1 [CHEMBL4069827] | – | – | 5.04 | Active

Row | Compound | pIC50 Value [1, 3] | Outcome [2, 4] | pIC50 Value [1, 5] | Outcome [2, 6]
27 | COc1ccccc1-c1nnc(-c2ccc(C(=O)N/N=C/c3cccc(F)c3)cc2)o1 [CHEMBL4072092] | – | – | 5.20 | Active
28 | COc1ccccc1-c1nnc(-c2ccc(C(=O)N/N=C/c3ccccc3C)cc2)o1 [CHEMBL4072556] | – | – | 4.47 | Inactive
29 | COc1ccccc1-c1nnc(-c2ccc(C(=O)N/N=C/c3ccccc3O)cc2)o1 [CHEMBL4074817] | 5.38 | Active | – | –
30 | O=[N+]([O-])c1cn2c(n1)OC[C@H](Oc1ccc(OC(F)(F)F)cc1)C2 [CHEMBL4078293] | 5.63 | Active | – | –
31 | COc1ccccc1-c1nnc(-c2ccc(C(=O)N/N=C/c3ccc(C)cc3)cc2)o1 [CHEMBL4079056] | – | – | 4.53 | Inactive
32 | COc1ccccc1-c1nnc(-c2ccc(C(=O)N/N=C/c3c(O)cc(O)cc3O)cc2)o1 [CHEMBL4080097] | 5.32 | Active | – | –
33 | COc1ccccc1-c1nnc(-c2ccc(C(=O)N/N=C/c3ccncc3)cc2)o1 [CHEMBL4080524] | – | – | 4.41 | Inactive
34 | COc1ccc(O)c(/C=N/NC(=O)c2ccc(-c3nnc(-c4ccccc4OC)o3)cc2)c1 [CHEMBL4082571] | – | – | 4.79 | Inactive
35 | O/N=C1/c2ccccc2OC(c2ccc(Cl)cc2)C1n1ccnc1 (stereo not drawn) [CHEMBL4083146] | 6.22 | Active | – | –
36 | COc1ccccc1-c1nnc(-c2ccc(C(=O)N/N=C/c3ccc(O)cc3)cc2)o1 [CHEMBL4085064] | – | – | 5.13 | Active
37 | COc1ccccc1-c1nnc(-c2ccc(C(=O)N/N=C/c3cccc([N+](=O)[O-])c3)cc2)o1 [CHEMBL4086911] | – | – | 4.13 | Inactive
38 | COc1ccccc1-c1nnc(-c2ccc(C(=O)N/N=C/c3ccc(O)cc3O)cc2)o1 [CHEMBL4087969] | 5.42 | Active | – | –
39 | COc1ccccc1-c1nnc(-c2ccc(C(=O)N/N=C/c3ccccc3Cl)cc2)o1 [CHEMBL4088386] | – | – | 4.54 | Inactive
40 | O/N=C1/c2ccccc2OC(c2cccc(Cl)c2)C1n1ccnc1 (stereo not drawn) [CHEMBL4088885] | – | – | 4.58 | Inactive
41 | COc1ccc(/C=N/NC(=O)c2ccc(-c3nnc(-c4ccccc4OC)o3)cc2)c(O)c1 [CHEMBL4090407] | – | – | 5.18 | Active
42 | COc1ccccc1-c1nnc(-c2ccc(C(=O)N/N=C/c3cccnc3)cc2)o1 [CHEMBL4090822] | – | – | 4.33 | Inactive
43 | COc1ccccc1-c1nnc(-c2ccc(C(=O)N/N=C/c3ccc(O)c(O)c3)cc2)o1 [CHEMBL4092817] | 6.02 | Active | – | –
44 | COc1ccccc1-c1nnc(-c2ccc(C(=O)N/N=C/c3cccc(Cl)c3)cc2)o1 [CHEMBL4096109] | – | – | 4.68 | Inactive
45 | COc1ccccc1-c1nnc(-c2ccc(C(=O)N/N=C/c3cccc(C)c3)cc2)o1 [CHEMBL4097073] | – | – | 4.40 | Inactive
46 | COc1ccccc1-c1nnc(-c2ccc(C(=O)N/N=C/c3cc(O)c(O)cc3O)cc2)o1 [CHEMBL4098126] | 6.01 | Active | – | –
47 | COc1cccc(/C=N/NC(=O)c2ccc(-c3nnc(-c4ccccc4OC)o3)cc2)c1 [CHEMBL4098544] | – | – | 4.10 | Inactive
48 | COc1ccccc1-c1nnc(-c2ccc(C(=O)N/N=C/c3ccc(F)cc3)cc2)o1 [CHEMBL4099059] | – | – | 4.85 | Inactive
49 | COc1ccc(/C=N/NC(=O)c2ccc(-c3nnc(-c4ccccc4OC)o3)cc2)cc1 [CHEMBL4099467] | – | – | 4.13 | Inactive
50 | COc1ccccc1-c1nnc(-c2ccc(C(=O)N/N=C/c3cccc(O)c3)cc2)o1 [CHEMBL4103014] | – | – | 4.74 | Inactive
51 | COc1ccccc1-c1nnc(-c2ccc(C(=O)N/N=C/c3ccccc3[N+](=O)[O-])cc2)o1 [CHEMBL4104790] | – | – | 4.19 | Inactive
